Test results as given in US9439975B2, “Small efficient cell penetrating peptides derived from the scorpion toxin maurocalcine” (Commissariat A L'Energie Atomique Et Aux Energies …, priority 2011, dated 2016).
Square brackets hold non-standard residues; d marks the D form. Ends that are not written are not given here. Abu = CC[C@H](N)C(=O)O

How the values were obtained:
cells = details: earlier reports; cited from earlier work
[1] = biological target: ryanodine receptor type 1 (RyR1) (Oryctolagus cuniculus, UniProt P11716); details: earlier reports; cited from earlier work
proteoglycans = details: cited from earlier work
[2] = upon intravenous injection; cited from earlier work
[3] = in vitro and in vivo; cited from earlier work
CHO cells = experiment: MTT assay of cell viability; type: cell-based, Chinese hamster; details: 1 or 10 μM peptide, 24 hrs
Procedure: Cells were seeded into 96-well micro plates at a density of approximately 8×10^4 cells/well. […] Control wells containing cell culture medium alone or with cells, both without peptide addition, were included in each experiment. 0.1% saponin was used as toxic agent for comparison. The cells were then incubated with 3-(4, 5-dimethylthiazol-2-yl)-2, 5-diphenyl-tetrazolium bromide (MTT) for 30 min. Conversion of MTT into purple colored MTT formazan by the living cells indicates the extent of cell viability. The crystals were dissolved with dimethyl sulfoxide (DMSO) and the optical density was measured at 540 nm using a microplate reader (Biotek ELx-800, MANDEL SCIENTIFIC INC.) for quantification of cell viability. All assays were run in triplicates.

Chain of ryanodine receptor type 1 (RyR1) (P11716 whole entry): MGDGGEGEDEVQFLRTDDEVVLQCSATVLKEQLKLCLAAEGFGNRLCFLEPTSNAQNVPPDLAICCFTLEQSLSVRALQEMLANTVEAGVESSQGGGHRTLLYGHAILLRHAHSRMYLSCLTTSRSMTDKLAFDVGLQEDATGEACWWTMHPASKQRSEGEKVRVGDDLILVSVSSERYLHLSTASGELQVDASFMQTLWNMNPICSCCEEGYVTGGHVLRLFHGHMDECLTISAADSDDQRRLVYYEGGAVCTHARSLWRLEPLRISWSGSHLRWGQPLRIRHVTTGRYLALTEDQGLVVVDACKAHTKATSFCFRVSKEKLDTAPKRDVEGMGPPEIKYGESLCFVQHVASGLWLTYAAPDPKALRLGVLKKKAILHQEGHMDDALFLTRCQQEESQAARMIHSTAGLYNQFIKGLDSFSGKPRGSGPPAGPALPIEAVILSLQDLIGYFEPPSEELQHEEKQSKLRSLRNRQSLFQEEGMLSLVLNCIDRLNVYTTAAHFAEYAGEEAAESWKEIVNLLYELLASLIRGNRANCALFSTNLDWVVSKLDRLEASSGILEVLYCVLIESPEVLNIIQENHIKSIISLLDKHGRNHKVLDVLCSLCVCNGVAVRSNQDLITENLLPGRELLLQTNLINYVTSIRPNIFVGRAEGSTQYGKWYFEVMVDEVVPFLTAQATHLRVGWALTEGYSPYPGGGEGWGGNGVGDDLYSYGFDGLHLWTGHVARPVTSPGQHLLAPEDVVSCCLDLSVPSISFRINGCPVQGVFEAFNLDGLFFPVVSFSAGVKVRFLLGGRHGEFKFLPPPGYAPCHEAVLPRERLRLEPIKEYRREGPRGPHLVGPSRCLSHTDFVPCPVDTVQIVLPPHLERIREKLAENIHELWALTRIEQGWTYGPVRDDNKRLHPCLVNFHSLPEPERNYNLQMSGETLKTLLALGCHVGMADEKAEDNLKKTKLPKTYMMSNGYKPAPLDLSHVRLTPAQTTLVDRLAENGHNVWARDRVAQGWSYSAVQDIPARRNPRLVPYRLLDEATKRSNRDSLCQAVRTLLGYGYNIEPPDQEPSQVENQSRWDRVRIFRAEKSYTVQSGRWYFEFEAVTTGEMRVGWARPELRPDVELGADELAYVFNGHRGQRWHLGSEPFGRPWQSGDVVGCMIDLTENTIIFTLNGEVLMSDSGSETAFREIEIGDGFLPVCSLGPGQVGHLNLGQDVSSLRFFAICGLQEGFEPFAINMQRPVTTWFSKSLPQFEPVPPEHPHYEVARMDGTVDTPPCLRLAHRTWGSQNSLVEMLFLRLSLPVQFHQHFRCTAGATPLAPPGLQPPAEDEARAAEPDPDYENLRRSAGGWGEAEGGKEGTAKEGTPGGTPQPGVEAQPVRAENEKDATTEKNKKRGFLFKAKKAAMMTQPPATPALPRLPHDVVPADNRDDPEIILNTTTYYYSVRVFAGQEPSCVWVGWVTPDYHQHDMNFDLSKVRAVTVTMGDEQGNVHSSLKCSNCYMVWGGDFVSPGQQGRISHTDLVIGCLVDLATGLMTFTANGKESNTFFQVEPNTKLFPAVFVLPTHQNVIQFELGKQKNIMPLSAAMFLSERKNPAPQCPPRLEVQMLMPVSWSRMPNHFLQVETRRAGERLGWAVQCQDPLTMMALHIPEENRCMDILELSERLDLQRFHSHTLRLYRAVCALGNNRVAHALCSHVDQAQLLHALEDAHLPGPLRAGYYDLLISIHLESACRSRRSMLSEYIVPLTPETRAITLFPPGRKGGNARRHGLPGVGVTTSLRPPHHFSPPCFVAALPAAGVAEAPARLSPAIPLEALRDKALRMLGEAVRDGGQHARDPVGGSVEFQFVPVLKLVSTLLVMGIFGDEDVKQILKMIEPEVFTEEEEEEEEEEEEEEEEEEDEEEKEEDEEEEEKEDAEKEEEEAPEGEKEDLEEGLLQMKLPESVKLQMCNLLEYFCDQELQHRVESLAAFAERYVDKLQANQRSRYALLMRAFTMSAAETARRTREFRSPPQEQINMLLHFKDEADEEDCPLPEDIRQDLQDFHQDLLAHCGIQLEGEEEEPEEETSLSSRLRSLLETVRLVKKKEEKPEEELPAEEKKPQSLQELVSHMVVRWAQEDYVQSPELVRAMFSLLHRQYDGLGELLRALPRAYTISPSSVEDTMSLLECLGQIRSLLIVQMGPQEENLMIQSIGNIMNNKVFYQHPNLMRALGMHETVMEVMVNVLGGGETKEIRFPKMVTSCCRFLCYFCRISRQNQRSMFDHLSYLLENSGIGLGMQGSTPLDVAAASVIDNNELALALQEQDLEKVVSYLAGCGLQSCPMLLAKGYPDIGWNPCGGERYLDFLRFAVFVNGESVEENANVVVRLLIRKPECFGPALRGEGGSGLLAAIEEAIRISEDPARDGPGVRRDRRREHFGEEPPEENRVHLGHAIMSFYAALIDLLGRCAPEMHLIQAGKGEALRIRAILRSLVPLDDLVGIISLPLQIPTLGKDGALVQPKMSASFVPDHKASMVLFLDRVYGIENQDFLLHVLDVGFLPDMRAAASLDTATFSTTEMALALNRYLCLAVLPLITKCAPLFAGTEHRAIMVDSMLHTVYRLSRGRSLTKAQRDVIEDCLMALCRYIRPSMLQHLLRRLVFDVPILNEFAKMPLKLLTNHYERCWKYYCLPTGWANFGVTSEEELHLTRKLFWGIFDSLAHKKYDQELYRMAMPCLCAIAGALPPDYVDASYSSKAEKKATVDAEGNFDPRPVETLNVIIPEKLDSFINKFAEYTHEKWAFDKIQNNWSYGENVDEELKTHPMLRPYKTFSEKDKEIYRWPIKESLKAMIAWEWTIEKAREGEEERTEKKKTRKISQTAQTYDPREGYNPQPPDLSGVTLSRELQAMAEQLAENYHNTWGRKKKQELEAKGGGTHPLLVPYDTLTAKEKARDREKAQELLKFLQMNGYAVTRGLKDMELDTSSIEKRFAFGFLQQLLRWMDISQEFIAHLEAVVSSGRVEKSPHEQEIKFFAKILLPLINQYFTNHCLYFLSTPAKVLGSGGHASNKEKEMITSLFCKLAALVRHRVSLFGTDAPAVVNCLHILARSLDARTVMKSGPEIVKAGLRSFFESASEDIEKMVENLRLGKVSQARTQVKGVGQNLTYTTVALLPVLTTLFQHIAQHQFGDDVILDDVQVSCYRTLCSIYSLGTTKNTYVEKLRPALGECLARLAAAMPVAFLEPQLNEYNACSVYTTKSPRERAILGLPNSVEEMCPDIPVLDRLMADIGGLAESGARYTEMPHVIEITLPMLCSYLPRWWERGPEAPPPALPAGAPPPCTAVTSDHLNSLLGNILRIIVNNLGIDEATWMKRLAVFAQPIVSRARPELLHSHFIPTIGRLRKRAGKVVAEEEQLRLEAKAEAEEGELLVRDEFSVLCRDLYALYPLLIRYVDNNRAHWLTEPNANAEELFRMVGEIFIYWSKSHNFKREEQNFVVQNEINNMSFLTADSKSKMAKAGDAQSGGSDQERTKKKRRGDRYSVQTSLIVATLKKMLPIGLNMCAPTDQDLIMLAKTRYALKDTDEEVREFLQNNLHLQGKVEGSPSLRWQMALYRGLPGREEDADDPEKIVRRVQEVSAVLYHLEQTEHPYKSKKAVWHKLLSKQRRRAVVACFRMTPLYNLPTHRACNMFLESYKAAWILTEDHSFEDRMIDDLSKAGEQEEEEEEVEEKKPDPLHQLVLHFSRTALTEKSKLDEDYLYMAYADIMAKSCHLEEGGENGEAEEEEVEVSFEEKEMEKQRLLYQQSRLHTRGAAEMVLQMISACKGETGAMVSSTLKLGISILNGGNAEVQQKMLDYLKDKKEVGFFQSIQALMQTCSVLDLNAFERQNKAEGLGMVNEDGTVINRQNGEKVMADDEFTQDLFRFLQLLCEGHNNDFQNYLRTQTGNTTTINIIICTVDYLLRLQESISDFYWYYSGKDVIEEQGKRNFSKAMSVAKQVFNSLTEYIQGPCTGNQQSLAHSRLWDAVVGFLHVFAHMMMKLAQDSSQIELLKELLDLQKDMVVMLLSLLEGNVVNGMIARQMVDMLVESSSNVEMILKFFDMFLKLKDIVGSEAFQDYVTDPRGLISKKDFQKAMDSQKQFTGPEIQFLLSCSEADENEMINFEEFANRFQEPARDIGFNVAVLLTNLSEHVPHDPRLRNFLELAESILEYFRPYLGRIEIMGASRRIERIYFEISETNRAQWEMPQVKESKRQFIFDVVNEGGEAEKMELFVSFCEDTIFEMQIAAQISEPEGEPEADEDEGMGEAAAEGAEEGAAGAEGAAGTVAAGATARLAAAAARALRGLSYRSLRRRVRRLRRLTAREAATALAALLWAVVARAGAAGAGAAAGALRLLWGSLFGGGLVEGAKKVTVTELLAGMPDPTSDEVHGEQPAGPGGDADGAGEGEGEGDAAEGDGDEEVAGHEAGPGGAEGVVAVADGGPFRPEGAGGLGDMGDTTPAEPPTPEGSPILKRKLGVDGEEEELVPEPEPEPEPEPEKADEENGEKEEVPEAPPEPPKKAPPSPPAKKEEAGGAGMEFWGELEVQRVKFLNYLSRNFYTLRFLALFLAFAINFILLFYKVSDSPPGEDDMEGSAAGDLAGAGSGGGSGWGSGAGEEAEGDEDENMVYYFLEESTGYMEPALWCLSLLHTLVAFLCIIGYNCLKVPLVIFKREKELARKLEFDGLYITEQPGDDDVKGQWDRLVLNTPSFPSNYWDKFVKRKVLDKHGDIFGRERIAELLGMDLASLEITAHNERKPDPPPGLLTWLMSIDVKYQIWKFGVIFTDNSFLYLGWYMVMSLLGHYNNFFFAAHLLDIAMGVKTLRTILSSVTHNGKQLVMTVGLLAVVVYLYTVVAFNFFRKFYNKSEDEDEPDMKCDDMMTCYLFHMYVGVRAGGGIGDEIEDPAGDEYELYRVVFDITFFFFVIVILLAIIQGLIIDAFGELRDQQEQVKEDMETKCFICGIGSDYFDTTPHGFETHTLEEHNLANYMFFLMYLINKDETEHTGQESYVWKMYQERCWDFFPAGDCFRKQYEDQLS

Row | Substance | cell penetration efficiency (cells) | pharmacological action on / interaction with RyR1 [1] | affinity of interaction with proteoglycans (proteoglycans) | stability in vivo [2] | associated toxicity [3] | cell toxicity, comparison (CHO cells)
1 | GDCLPHLKLCKENKDCCSKKCKRRGTNIEKRCR [MCa] | penetrates into cells at very low concentrations | exquisite pharmacological activator | micromolar range | over 24 hrs | almost no associated toxicity | 
2 | KDaaSKKaKRRGC (KD[Abu][Abu]SKK[Abu]KRRGC) [MCaUF14-25-C] |  |  |  |  |  | slightly more toxic than 1 μM except for MCaUF14-25-C
